Source: ChEMBL document CHEMBL5120914, “An O-Benzyl Phosphonamidate Prodrug of Tenofovir for the Treatment of Hepatitis B Virus Infection” (J Med Chem, 2022)

How the values were obtained:
[1] = Cytotoxicity against human HepG2 cells assessed as reduction in cell growth incubated for 3 days by MTT assay; assay type: toxicity, cell-based; conditions: time 3 day
[2] = system: Hepatitis B virus; test: Antiviral activity against Hepatitis B virus infected in human HepG2.2.15 cells assessed as inhibition of viral DNA replication measured for 9 days by FQ-PCR analysis; assay type: functional, organism-based; conditions: HepG2 2.2.15, 216 h
[3] = system: Hepatitis B virus; test: Antiviral activity against Hepatitis B virus infected in human HepG2.2.15 cells assessed as inhibition of viral DNA replication at 1 uM measured after 6 days by FQ-PCR analysis relative to control; assay type: functional, HepG2 2.2.15; set-up: scale not given: the % may be the effect or the level left; conditions: time 6 day
[4] = system: Hepatitis B virus; test: Antiviral activity against Hepatitis B virus infected in ig dosed duck assessed as reduction in viral DNA replication in liver administered once daily for first 10 days followed by increase in dose administered for another 18 days; assay type: functional, organism-based; conditions: dose 10-40 mg/kg, time 28.0 day, DDE = dose-dependent effect

EC50 [2] [µM] | Structure (SMILES) | CC50 at 72 h [1] [µM] | Activity [3] [%] | Activity [4] | Activity ([3]; 144 h, 1 µM) [%]
0.047 | CC(C)OC(=O)[C@H](C)NP(=O)(CO[C@H](C)Cn1cnc2c(N)ncnc21)OCc1cccc(Cl)c1 (stereo partly specified) | > 500 | 73.95 | – | –
– | Cc1ccccc1COP(=O)(CO[C@H](C)Cn1cnc2c(N)ncnc21)N[C@@H](C)C(=O)OCC(C)(C)C (stereo partly specified) | > 500 | 35.22 | – | –
0.827 | COC(=O)C[C@H](NP(=O)(CO[C@H](C)Cn1cnc2c(N)ncnc21)OCc1ccccc1C)C(=O)OC (stereo partly specified) | > 500 | 69.01 | – | –
– | Cc1ccccc1COP(=O)(CO[C@H](C)Cn1cnc2c(N)ncnc21)N[C@@H](C)C(=O)OCC(C)C (stereo partly specified) | > 500 | 25.78 | – | –
0.147 | CC(C)OC(=O)[C@H](C)NP(=O)(CO[C@H](C)Cn1cnc2c(N)ncnc21)OCc1ccc(C(F)(F)F)cc1 (stereo partly specified) | > 500 | 63.45 | – | –
– | CC(C)OC(=O)[C@H](C)NP(=O)(CO[C@H](C)Cn1cnc2c(N)ncnc21)OCc1ccc(Br)cc1 (stereo partly specified) | > 500 | – | – | –
0.186 | Cc1ccc(COP(=O)(CO[C@H](C)Cn2cnc3c(N)ncnc32)N[C@@H](C)C(=O)OC(C)C)cc1 (stereo partly specified) | > 500 | 65.32 | – | –
– | Cc1ccccc1COP(=O)(CO[C@H](C)Cn1cnc2c(N)ncnc21)N[C@@H](C)C(=O)OC(C)C (stereo in doubt; 1a) | – | – | Dde | –
0.027 | CC(C)OC(=O)[C@H](C)NP(=O)(CO[C@H](C)Cn1cnc2c(N)ncnc21)OCc1cccc(F)c1 (stereo partly specified) | > 500 | 68.11 | – | –
0.181 | Cc1cccc(COP(=O)(CO[C@H](C)Cn2cnc3c(N)ncnc32)N[C@@H](C)C(=O)OC(C)C)c1 (stereo partly specified) | > 500 | 69.34 | – | –
– | CCCCOC(=O)[C@H](C)NP(=O)(CO[C@H](C)Cn1cnc2c(N)ncnc21)OCc1ccccc1C (stereo partly specified) | > 500 | 22.62 | – | –
0.052 | CC(C)OC(=O)[C@H](C)NP(=O)(CO[C@H](C)Cn1cnc2c(N)ncnc21)OCc1ccccc1Br (stereo partly specified) | 490 | 80.75 | – | –
– | Cc1ccccc1COP(=O)(CO[C@H](C)Cn1cnc2c(N)ncnc21)NCC(=O)OC(C)C (stereo partly specified) | > 500 | – | – | –
– | CC(C)OC(=O)[C@H](C)NP(=O)(CO[C@H](C)Cn1cnc2c(N)ncnc21)OCc1cccc([N+](=O)[O-])c1 (stereo partly specified) | > 500 | 34.63 | – | –
– | CCOC(=O)[C@H](C)NP(=O)(CO[C@H](C)Cn1cnc2c(N)ncnc21)OCc1ccccc1C (stereo partly specified) | > 500 | 41.27 | – | –
– | CC(C)OC(=O)[C@H](C)NP(=O)(CO[C@H](C)Cn1cnc2c(N)ncnc21)OCc1cccc(Br)c1 (stereo partly specified) | > 500 | 31.94 | – | –
– | COc1cccc(COP(=O)(CO[C@H](C)Cn2cnc3c(N)ncnc32)N[C@@H](C)C(=O)OC(C)C)c1 (stereo partly specified) | > 500 | 46.33 | – | –
– | CC(C)OC(=O)[C@H](C)NP(=O)(CO[C@H](C)Cn1cnc2c(N)ncnc21)OCc1ccccc1 (stereo partly specified) | > 500 | 47.14 | – | –
– | Cc1ccccc1COP(=O)(CO[C@H](C)Cn1cnc2c(N)ncnc21)N[C@@H](C)C(=O)OC(C)C (stereo in doubt; 1a-2) | – | – | – | 85.4
